According to the supplement of paper PMC11061612:

What was measured:
Test in all cases: Bliss excess, mean over the matrix (fraction); higher = more synergy
[1] = test system: LB831-BLC (Bladder Carcinoma)
In short: (§1)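 Cell lines in DMEM/F12 or RPMI with 10% FBS were plated in 1536-well plates, held 24 hours at 37°C, 5% CO2, then given two-drug dose matrices for 72 hours (DMSO typically 0.2%). Viability was read by CellTiter-Glo 2.0 luminescence and scaled as inhibition from 0 (vehicle wells) to 1 (blank wells). Combination Emax is the second-highest inhibition in the matrix; Bliss excess is observed combination effect minus expected EA + EB − EA·EB, EA and EB being single-agent effects.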

[2] = test system: RC-K8 (B-Cell Non-Hodgkin's Lymphoma)
In short: as §1

[3] = test system: LU-135 (Small Cell Lung Carcinoma)
In short: as §1

[4] = test system: HOS (Osteosarcoma)
In short: as §1

[5] = test system: HCC-78 (Lung Adenocarcinoma)
In short: as §1

[6] = test system: NCI-H2085 (Non-Small Cell Lung Carcinoma)
In short: as §1

[7] = test system: HuP-T4 (Pancreatic Carcinoma)
In short: as §1

[8] = test system: NB10 (Neuroblastoma)
In short: as §1

[9] = test system: TE-15 (Esophageal Squamous Cell Carcinoma)
In short: as §1

[10] = test system: HT-1376 (Bladder Carcinoma)
In short: as §1

[11] = test system: NOS-1 (Osteosarcoma)
In short: as §1

[12] = test system: T98G (Glioblastoma)
In short: as §1

[13] = test system: SNU-5 (Gastric Carcinoma)
In short: as §1

[14] = test system: OVCA420 (Ovarian Carcinoma)
In short: as §1

[15] = test system: KP-1N (Pancreatic Carcinoma)
In short: as §1

[16] = test system: CCRF-CEM (T-Lymphoblastic Leukemia)
In short: as §1

[17] = test system: EC-GI-10 (Esophageal Squamous Cell Carcinoma)
In short: as §1

[18] = test system: COLO-205 (Colorectal Carcinoma)
In short: as §1

[19] = test system: CaR-1 (Colorectal Carcinoma)
In short: as §1

[20] = test system: Daoy (Other Solid Carcinomas)
In short: as §1

SMILES	Bliss excess [1]	Bliss excess [2]	Bliss excess [3]	Bliss excess [4]	Bliss excess [5]	Bliss excess [6]	Bliss excess [7]	Bliss excess [8]	Bliss excess [9]	Bliss excess [10]	Bliss excess [11]	Bliss excess [12]	Bliss excess [13]	Bliss excess [14]	Bliss excess [15]	Bliss excess [16]	Bliss excess [17]	Bliss excess [18]	Bliss excess [19]	Bliss excess [20]
COc1cc2ncnc(Nc3ccc(F)c(Cl)c3)c2cc1OCCCN1CCOCC1 [Gefitinib] + CC(C)n1c(=O)n(C)c2cnc3cc(F)c(-c4ccc(OCCCN5CCCCC5)nc4)cc3c21 [AZD1390] (first compound max 10 µM, 7x7, partner max 0.3 µM)	-0.0482	-0.0473	-0.0801	-0.0491	-0.0525	-0.0515	-0.0574	-0.0629	-0.0941	-0.0387	-0.063	-0.0557	-0.0887	-0.0193	-0.0625	-0.0419	-0.0526	-0.0578	-0.0812	-0.0373
CS(=O)(=O)CCNCc1ccc(-c2ccc3ncnc(Nc4ccc(OCc5cccc(F)c5)c(Cl)c4)c3c2)o1 [Lapatinib] + C[C@@H](Oc1cc(-c2cnn(C3CCNCC3)c2)cnc1N)c1c(Cl)ccc(F)c1Cl [Crizotinib] (first compound max 10 µM, 7x7, partner max 10 µM)	-0.0321	-0.0433	0.0255	0.0138	-0.0289	-0.0813	0.0261	-0.0771	-0.0148	-0.0343	-0.0114	-0.0861	0.0306	0.0287	-0.0435	-0.0185	-0.0379	-0.0261	-0.0084	-0.0297
CC(=O)c1c(C)c2cnc(Nc3ccc(N4CCNCC4)cn3)nc2n(C2CCCC2)c1=O [Palbociclib] + CC1(C)CCC(CN2CCN(c3ccc(C(=O)NS(=O)(=O)c4ccc(NCC5CCOCC5)c([N+](=O)[O-])c4)c(Oc4cnc5[nH]ccc5c4)c3)CC2)=C(c2ccc(Cl)cc2)C1 [Venetoclax] (first compound max 10 µM, 7x7, partner max 1 µM)	-0.0523	-0.0904	0.0482	-0.0218	-0.0244	-0.0306	-0.0281	0.0062	-0.0257	-0.0453	0.0157	-0.0075	0.0453	-0.0468	-0.0396	-0.008	-0.0031	-0.0065	-0.0507	0.005
CC(=O)c1c(C)c2cnc(Nc3ccc(N4CCNCC4)cn3)nc2n(C2CCCC2)c1=O [Palbociclib] + Cc1c2c(nn1C)CSCc1cc(n(C)n1)CSc1cc(c3ccccc3c1)OCCCc1c(C(=O)O)n(C)c3c-2c(Cl)ccc13 [AZD5991] (first compound max 10 µM, 7x7, partner max 1 µM)	-0.0092	-0.0555	0.0165	-0.0182	-0.0015	-0.0374	-0.0184	0.0435	-0.0236	-0.0073	-0.0006	0.0003	-0.0206	-0.0313	-0.0384	-0.014	0.0305	-0.0487	-0.0621	-0.0112
CC(=O)c1c(C)c2cnc(Nc3ccc(N4CCNCC4)cn3)nc2n(C2CCCC2)c1=O [Palbociclib] + Cn1cnc2c(F)c(Nc3ccc(Br)cc3Cl)c(C(=O)NOCCO)cc21 [Selumetinib] (first compound max 10 µM, 7x7, partner max 10 µM)	-0.0339	-0.0203	0.0056	0.0109	-0.0189	0.0018	0.0396	0.0998	0.0179	-0.047	-0.0152	-0.0103	0.0031	-0.0157	-0.0715	0.0385	-0.0407	-0.081	-0.0229	-0.0082
COc1cccc(OCCCN)c1-c1cc(Nc2cnc(C#N)cn2)n[nH]1 [Prexasertib] + CCc1c2c(nc3ccc(O)cc13)-c1cc3c(c(=O)n1C2)COC(=O)[C@]3(O)CC [SN-38] (first compound max 1 µM, 7x7, partner max 0.3 µM)	0.0581	-0.0506	-0.0623	0.0409	-0.0337	-0.0245	-0.0424	-0.0986	-0.0275	-0.0265	0.0864	0.0121	-0.0085	0.0326	0	-0.0078	0.0252	0.153	-0.053	0.0128
C[C@@H](c1ccc2nccn2c1)n1nnc2ncc(-c3cnn(C)c3)nc21 [Savolitinib] + CC1(C)CCC(CN2CCN(c3ccc(C(=O)NS(=O)(=O)c4ccc(NCC5CCOCC5)c([N+](=O)[O-])c4)c(Oc4cnc5[nH]ccc5c4)c3)CC2)=C(c2ccc(Cl)cc2)C1 [Venetoclax] (first compound max 1 µM, 7x7, partner max 1 µM)	-0.0978	-0.0489	-0.0561	-0.0243	-0.0514	-0.0364	-0.0575	-0.0389	-0.0227	-0.0443	-0.05	-0.0064	-0.0585	-0.0505	-0.0646	-0.0527	-0.0547	-0.0675	-0.0617	-0.0185
C[C@@H](c1ccc2nccn2c1)n1nnc2ncc(-c3cnn(C)c3)nc21 [Savolitinib] + Cc1c2c(nn1C)CSCc1cc(n(C)n1)CSc1cc(c3ccccc3c1)OCCCc1c(C(=O)O)n(C)c3c-2c(Cl)ccc13 [AZD5991] (first compound max 1 µM, 7x7, partner max 1 µM)	-0.0148	-0.0257	-0.0056	-0.0188	-0.0366	-0.0401	-0.0618	-0.0278	-0.0511	-0.0206	-0.059	-0.021	0.0188	-0.0134	-0.0637	0.0088	-0.07	-0.0386	-0.0725	-0.0141
Cn1cnc2c(F)c(Nc3ccc(Br)cc3Cl)c(C(=O)NOCCO)cc21 [Selumetinib] + C=CCn1c(=O)c2cnc(Nc3ccc(N4CCN(C)CC4)cc3)nc2n1-c1cccc(C(C)(C)O)n1 [AZD1775] (first compound max 10 µM, partner max 1 µM)	-0.08	-0.0714	-0.0337	-0.0713	-0.0293	-0.0751	0.0161	-0.0125	-0.0299	-0.0093	0.0355	-0.0395	-0.0239	-0.0093	-0.0298	0.0378	-0.0424	-0.0256	-0.0218	-0.0443
Cn1cnc2c(F)c(Nc3ccc(Br)cc3Cl)c(C(=O)NOCCO)cc21 [Selumetinib] + CC(C)n1c(=O)n(C)c2cnc3cc(F)c(-c4ccc(OCCCN5CCCCC5)nc4)cc3c21 [AZD1390] (first compound max 10 µM, 7x7, partner max 0.3 µM)	-0.0237	-0.0253	-0.0318	-0.0404	-0.0313	-0.06	-0.0086	-0.0323	-0.0359	-0.0416	0.0117	-0.0125	0.0649	0.0018	-0.0532	-0.0131	-0.0359	-0.0209	-0.041	-0.021
Cn1cnc2c(F)c(Nc3ccc(Br)cc3Cl)c(C(=O)NOCCO)cc21 [Selumetinib] + CCN(CCO)CCCOc1ccc2c(Nc3cc(CC(=O)Nc4cccc(F)c4)[nH]n3)ncnc2c1 [AZD2811] (first compound max 10 µM, 7x7, partner max 1 µM)	-0.0385	0.0763	-0.0118	-0.0192	-0.0124	-0.0589	-0.0161	-0.0402	-0.0741	-0.0488	-0.0092	-0.0104	0.0274	0.0471	-0.0461	0.0007	0.0087	-0.0081	0.0301	0.012
Cn1cnc2c(F)c(Nc3ccc(Br)cc3Cl)c(C(=O)NOCCO)cc21 [Selumetinib] + C[C@@H]1COCCN1C2=NC(=NC(=C2)C3(CC3)[S@](=N)(=O)C)C4=C5C=CNC5=NC=C4 [AZD6738] (first compound max 10 µM, 7x7, partner max 10 µM)	-0.0569	0.0091	0.0383	-0.0613	-0.0254	-0.0063	0.0891	-0.0247	0.0391	-0.021	0.043	-0.0174	0.0524	0.078	-0.0061	-0.0108	0.0623	0.0526	-0.069	-0.0087
CC(=O)Nc1cccc(-n2c(=O)n(C3CC3)c(=O)c3c(Nc4ccc(I)cc4F)n(C)c(=O)c(C)c32)c1 [Trametinib] + Cc1nc(-c2cn3c(n2)-c2ccc(-c4cnn(C(C)(C)C(N)=O)c4)cc2OCC3)n(C(C)C)n1 [Taselisib] (first compound max 1 µM, 7x7, partner max 10 µM)	0.0977	0.0907	0.113	0.0604	0.0913	0.0062	0.241	0.118	0.0816	0.0546	0.191	0.0822	0.141	0.0806	0.101	0.0951	0.112	0.0229	0.0783	0.0146
CC1(C)CCC(CN2CCN(c3ccc(C(=O)NS(=O)(=O)c4ccc(NCC5CCOCC5)c([N+](=O)[O-])c4)c(Oc4cnc5[nH]ccc5c4)c3)CC2)=C(c2ccc(Cl)cc2)C1 [Venetoclax] + C1CN(CCC1(C(=O)N[C@@H](CCO)C2=CC=C(C=C2)Cl)N)C3=NC=NC4=C3C=CN4 [Capivasertib] (first compound max 1 µM, 7x7, partner max 3 µM)	-0.0272	-0.0173	-0.0429	-0.0243	-0.0331	-0.0569	-0.033	-0.0808	-0.0429	-0.0621	-0.0157	-0.0382	-0.0485	-0.0357	-0.0193	0.0042	-0.0488	-0.0423	-0.0045	0.0117
